{
  "source": "paper PMC11395237",
  "about": "“Characteristics of a Novel Zearalenone Lactone Hydrolase ZHRnZ and Its Thermostability Modification” (International Journal of Molecular Sciences, 2024)",
  "assay_in_all_cases": "HPLC-fluorescence of residual substrate",
  "type_in_all_cases": "biochemical",
  "settings_in_all_cases": "read-out: Km (μg.mL^-1); pH 9.0, 45 °C, 10 min, 25 μg/mL enzyme, 10-60 μg/mL ZEN",
  "key": {"[1]": {"molecular_target": "T1, ZHRnZ (Rosellinia necatrix, UniProt A0A1W2TNW3)", "T1 construct": "gene SAMD00023353_4301030; His-tag from pET28a (BamHI/XhoI), codon-optimized gene, E. coli BL21(DE3), Ni-NTA purified; homodimer by homology model", "T1 sequence (A0A1W2TNW3 entry or part of it)": "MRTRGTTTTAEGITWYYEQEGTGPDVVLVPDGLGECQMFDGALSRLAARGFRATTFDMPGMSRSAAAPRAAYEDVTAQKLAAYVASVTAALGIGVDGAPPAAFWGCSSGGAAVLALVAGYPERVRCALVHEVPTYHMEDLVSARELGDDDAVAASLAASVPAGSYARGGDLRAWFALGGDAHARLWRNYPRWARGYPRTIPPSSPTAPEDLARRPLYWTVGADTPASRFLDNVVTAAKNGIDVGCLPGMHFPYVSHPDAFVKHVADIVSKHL", "text": "(§1) HPLC-fluorescence of residual substrate on ZHRnZ"}, "[2]": {"molecular_target": "T2, ZHRnZ (Rosellinia necatrix, UniProt A0A1W2TNW3, E122Q)", "T2 construct": "gene SAMD00023353_4301030; His-tag from pET28a (BamHI/XhoI), codon-optimized gene, E. coli BL21(DE3), Ni-NTA purified; homodimer by homology model", "T2 sequence (A0A1W2TNW3 whole entry E122Q)": "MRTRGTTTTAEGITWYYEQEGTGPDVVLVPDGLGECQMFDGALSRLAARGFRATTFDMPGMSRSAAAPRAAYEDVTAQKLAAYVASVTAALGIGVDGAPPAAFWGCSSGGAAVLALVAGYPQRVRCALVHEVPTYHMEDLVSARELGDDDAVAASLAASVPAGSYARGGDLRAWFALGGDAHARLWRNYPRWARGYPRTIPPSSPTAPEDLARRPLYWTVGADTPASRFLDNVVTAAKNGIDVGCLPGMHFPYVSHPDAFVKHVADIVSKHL", "text": "as §1"}, "[3]": {"molecular_target": "T3, ZHRnZ (Rosellinia necatrix, UniProt A0A1W2TNW3, E122R)", "T3 construct": "gene SAMD00023353_4301030; His-tag from pET28a (BamHI/XhoI), codon-optimized gene, E. coli BL21(DE3), Ni-NTA purified; homodimer by homology model", "T3 sequence (A0A1W2TNW3 whole entry E122R)": "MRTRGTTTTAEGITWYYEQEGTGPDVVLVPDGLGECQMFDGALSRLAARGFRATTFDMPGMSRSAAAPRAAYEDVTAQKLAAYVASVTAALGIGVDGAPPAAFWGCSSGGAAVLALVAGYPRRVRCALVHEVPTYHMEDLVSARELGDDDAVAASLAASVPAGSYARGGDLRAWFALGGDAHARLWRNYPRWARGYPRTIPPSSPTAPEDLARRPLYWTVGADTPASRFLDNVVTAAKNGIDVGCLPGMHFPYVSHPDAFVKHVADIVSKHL", "text": "as §1"}},
  "data": [
    {"smiles": "C[C@H]1CCCC(=O)CCC/C=C/c2cc(O)cc(O)c2C(=O)O1", "note": "[ZEN]", "values": [
      {"measurement": "Km", "setting": "[1]", "result": 67.6, "unit": "µM"},
      {"measurement": "Km", "setting": "[2]", "result": 271, "unit": "µM"},
      {"measurement": "Km", "setting": "[3]", "result": 25.5, "unit": "µM"}
    ]}
  ]
}
